Values of other authors in patent EP4527389A1 (Laboratorios Farmacéuticos Rovi S.A., priority 2022, dated 2023).

Biological target: CYP2D6 (cytochrome P450 2D6) enzyme (Homo sapiens, UniProt P10635)
Details: three categories: strong, moderate, weak

CYP2D6 (cytochrome P450 2D6) enzyme, sequence (P10635 whole entry): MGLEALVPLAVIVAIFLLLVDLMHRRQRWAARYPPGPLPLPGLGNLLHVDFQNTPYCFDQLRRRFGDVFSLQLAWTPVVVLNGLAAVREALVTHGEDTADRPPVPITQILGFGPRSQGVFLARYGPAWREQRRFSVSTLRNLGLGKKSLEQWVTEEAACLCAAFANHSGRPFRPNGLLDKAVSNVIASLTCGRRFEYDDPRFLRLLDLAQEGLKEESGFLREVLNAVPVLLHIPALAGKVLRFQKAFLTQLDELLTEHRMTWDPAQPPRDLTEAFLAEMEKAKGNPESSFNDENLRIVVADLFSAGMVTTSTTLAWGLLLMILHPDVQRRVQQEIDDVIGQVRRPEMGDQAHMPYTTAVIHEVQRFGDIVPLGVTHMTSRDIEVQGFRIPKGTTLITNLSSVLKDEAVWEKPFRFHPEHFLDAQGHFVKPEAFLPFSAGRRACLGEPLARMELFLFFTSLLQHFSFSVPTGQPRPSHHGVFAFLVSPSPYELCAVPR

Row | SMILES | CYP2D6 enzyme inhibitor category
1 | C[C@]12CC[C@H](O)CC1=CC[C@@H]1[C@@H]2CC[C@]2(C)C(c3cccnc3)=CC[C@@H]12 [abiraterone] | moderate inhibitor
2 | Cc1ccc(-c2cc(C(F)(F)F)nn2-c2ccc(S(N)(=O)=O)cc2)cc1 [celecoxib] | weak inhibitor
3 | CN/C(=N/CCSCc1nc[nH]c1C)NC#N [cimetidine] | weak inhibitor
4 | C[C@@H](NCCCc1cccc(C(F)(F)F)c1)c1cccc2ccccc12 [cinacalcet] | moderate inhibitor
5 | CN1C(=O)CC(=O)N(c2ccccc2)c2cc(Cl)ccc21 [clobazam] | weak inhibitor
6 | CC(C)c1nc(CN(C)C(=O)N[C@@H](CCN2CCOCC2)C(=O)N[C@H](CC[C@H](Cc2ccccc2)NC(=O)OCc2cncs2)Cc2ccccc2)cs1 [cobicistat] | weak inhibitor
7 | CN(C)CCC[C@@]1(c2ccc(F)cc2)OCc2cc(C#N)ccc21 [escitalopram] | weak inhibitor
8 | CC(CCc1ccccc1)NCC(O)c1ccc(O)c(C(N)=O)c1 (stereo not drawn) [labetalol] | weak inhibitor
9 | C[C@H]1CNCCc2ccc(Cl)cc21 [lorcaserin] | moderate inhibitor
10 | Nc1nc(CC(=O)Nc2ccc(CCNC[C@H](O)c3ccccc3)cc2)cs1 [mirabegron] | moderate inhibitor
11 | Fc1ccc([C@@H]2CCNC[C@H]2COc2ccc3c(c2)OCO3)cc1 [paroxetine] | strong inhibitor
12 | C=C[C@H]1C[N@@]2CC[C@H]1C[C@@H]2[C@@H](O)c1ccnc2ccc(OC)cc12 [quinidine] | strong inhibitor
13 | CN[C@H]1CC[C@@H](c2ccc(Cl)c(Cl)c2)c2ccccc21 [sertraline] | weak inhibitor
14 | CN(C/C=C/C#CC(C)(C)C)Cc1cccc2ccccc12 [terbinafine] | strong inhibitor
15 | CCCS(=O)(=O)Nc1ccc(F)c(C(=O)c2c[nH]c3ncc(-c4ccc(Cl)cc4)cc23)c1F [vemurafenib] | weak inhibitor

Tested on: not given
Details: daily paroxetine 20 mg in patients stabilized on risperidone (4 to 8 mg/day)

Row | SMILES | decrease of 9-hydroxyrisperidone concentrations | increase of concentrations of the active moiety (the sum of risperidone plus 9-hydroxyrisperidone) | increase of mean plasma concentrations of risperidone
16 | Fc1ccc([C@@H]2CCNC[C@H]2COc2ccc3c(c2)OCO3)cc1 [paroxetine] | approximately 10% | approximately 1.4 fold | approximately 4 fold
